Read-outs that look alike come from different tables or passages of the source.
Legend:
[1] = tested on: IL-6 secretion in the human mast cell line HMC 1.1; assay: IL-6 production inhibition assay (IL-33 stimulated HMC 1.1 cells, IL-6 ELISA); format: cell-based; settings: for inhibition at 1 µM: 1 μM compound, read-out: Inhibition of hIL-6 production (%) 1 μM; for inhibition at 1 µM / inhibition at 10 µM / inhibition at 0.1 µM: 24 hours; for inhibition at 10 µM: 10 μM compound, read-out: Inhibition of hIL-6 production (%) 10 μM; for EC50: read-out: Inhibition of hIL-6 production EC50; for inhibition at 0.1 µM: 0.1 μM compound, read-out: Inhibition of hIL-6 production (%) 0.1 μM
Outline: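 HMC 1.1 cells stimulated with 200 nM recombinant human IL-33 were exposed 24 hours to compound at 10 μM, 25 μM, 30 μM or 50 μM, among other levels. Secreted IL-6 was quantified by ELISA in triplicate against a standard curve and expressed as % of vehicle.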

[2] = Cellular viability, WST-8 assay, without or with human liver microsomes; format: cell-based
Experimental: (§1) Human liver cancer cell line HepG2 cells were cultured in a medium (high glucose Dulbecco's Modified Eagle Medium, DMEM, HyClone) supplemented with 10% fetal bovine serum (FBS, HyClone) and 1% antibiotic in a thermostat maintained at 37° C. with 5% CO2.
(§2) HepG2 cells, which are adherent cells, were […] or presence of human liver microsomes (Gibco) and NADPH regenerating system.
(§3) Cell cultures were exchanged using […] of medium (high glucose Dulbecco's Modified Eagle Medium, DMEM, HyClone) and incubated for 24 hours.
(§4) After adding 10 μL of WST-8 (abCam), the absorbance was obtained at 460 nm after 5 seconds of orbital shaking with a microplate reader (Tecan, Spark©) 2 hours later.
(§5) The mean of the three values obtained in triplicate was calculated and expressed as % cellular viability compared to vehicle treatment.

[3] = tested on: Human liver cancer cell line HepG2 cells; assay: as above; format: cell-based; settings: for Cellular viability (%) (+) microsome: HepG2, with human liver microsomes; for Cellular viability (%) (−) microsome: HepG2, without human liver microsomes
Experimental: as §1, §2, §3, §4, §5

[4] = target: T1, IL33 and ST2 binding (Homo sapiens, UniProt O95760);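 also: plate ELISA with coated Flag-tagged human IL-33 and His-tagged human ST2, bound ST2 detected by anti-His HRP and TMB absorbance at 450 nm, 2 h compound incubation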
T1 sequence (O95760 112-270 limits assumed): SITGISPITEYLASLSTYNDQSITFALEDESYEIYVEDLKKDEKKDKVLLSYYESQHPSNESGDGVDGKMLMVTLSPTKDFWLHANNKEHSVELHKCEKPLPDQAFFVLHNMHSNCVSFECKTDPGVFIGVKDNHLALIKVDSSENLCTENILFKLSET

[5] = target: T1, IL33 and ST2 binding; assay: biochemical
[6] = HepG2, with human liver microsomes, read-out: CC50 (μM) (+) microsome
[7] = HepG2 cells, HepG2, without human liver microsomes, read-out: CC50 (μM) (−) microsome

SMILES	inhibition ([4]; 30 µM) [%]	inhibition ([4]; 100 µM) [%]	IC50 [5] [µM]	EC50 [1] [µM]	inhibition at 1 µM [1] [%]	inhibition at 10 µM [1] [%]	CC50 at 24 h [2, 6] [µM]	CC50 at 24 h [2, 7] [µM]	Cellular viability (%) (+) microsome ([3]; at 100 μM) [at %]	Cellular viability (%) (−) microsome ([3]; at 100 μM) [at %]	inhibition at 0.1 µM [1] [%]	Cellular viability (%) (+) microsome ([3]; at 135 μM) [at %]	Cellular viability (%) (−) microsome ([3]; at 135 μM) [at %]	Cellular viability (%) (+) microsome ([3]; at 160 μM) [at %]	Cellular viability (%) (−) microsome ([3]; at 160 μM) [at %]
CCOC(=O)c1nc(-c2ccc(C(F)(F)F)cc2)oc1-c1ccccc1OC(F)(F)F [Compound 52, Ethyl 5-(2-(trifluoromethoxy)phenyl)-2-(4-(trifluoromethyl)phenyl)oxazole-4-carboxylate]	115	115	7.99	2.26	22	48	–	–	97	117	–	–	–	–	–
CCOC(=O)c1nc(-c2cccc(Cl)c2)oc1-c1ccccc1 [Compound 75, Ethyl 2-(3-chlorophenyl)-5-phenyloxazole-4-carboxylate]	93	108	11.7	–	5	26	–	–	100	106	–	–	–	–	–
CCOC(=O)c1nc(-c2ccc(Cl)c(C(F)(F)F)c2)oc1-c1ccccc1 [Compound 98, Ethyl 2-(4-chloro-3-(trifluoromethyl)phenyl)-5-phenyloxazole-4-carboxylate]	110	110	5.21	–	-12	30	–	–	90	83	–	–	–	–	–
CN(C)CCNC(=O)c1nc(-c2ccc(Cl)cc2)oc1-c1ccccc1[N+](=O)[O-] [Compound 246, 2-(4-Chlorophenyl)-N-(2-(dimethylamino)ethyl)-5-(2-nitrophenyl)oxazole-4-carboxamide]	110	112	4.78	6.15	20	45	16	11.8	52	47	–	–	–	–	–
CN(C)CCNC(=O)c1nc(-c2ccc(C#N)cc2)oc1-c1ccccc1 [Compound 249, 2-(4-Cyanophenyl)-N-(2-(dimethylamino)ethyl)-5-phenyloxazole-4-carboxamide]	81	97	6.46	–	8	35	29.1	19	50	43	–	–	–	–	–
CN(C)CCNC(=O)c1nc(-c2ccc([N+](=O)[O-])cc2)oc1-c1ccccc1[N+](=O)[O-] [Compound 277, N-(2-(Dimethylamino)ethyl)-5-(2-nitrophenyl)-2-(4-nitrophenyl)oxazole-4-carboxamide]	60	111	14.4	–	27	31	46.2	25.4	49	46	–	–	–	–	–
CNC(=O)c1nc(-c2ccc(C(F)(F)F)cc2)oc1-c1cccc(SC)c1 [Compound 290, N-Methyl-5-(3-(methylthio)phenyl)-2-(4-(trifluoromethyl)phenyl)oxazole-4-carboxamide]	112	112	4.51	–	49	59	–	–	–	–	28	60	47	–	–

Stronger by IC50 [5], values ahead:

inhibition ([4]; 30 µM) [%]	inhibition ([4]; 100 µM) [%]	IC50 [5] [µM]	EC50 [1] [µM]	SMILES	inhibition at 1 µM [1] [%]	inhibition at 10 µM [1] [%]	CC50 at 24 h [2, 6] [µM]	CC50 at 24 h [2, 7] [µM]	Cellular viability (%) (+) microsome ([3]; at 100 μM) [at %]	Cellular viability (%) (−) microsome ([3]; at 100 μM) [at %]	inhibition at 0.1 µM [1] [%]	Cellular viability (%) (+) microsome ([3]; at 135 μM) [at %]	Cellular viability (%) (−) microsome ([3]; at 135 μM) [at %]	Cellular viability (%) (+) microsome ([3]; at 160 μM) [at %]	Cellular viability (%) (−) microsome ([3]; at 160 μM) [at %]
107	108	1.71	–	CCOC(=O)c1nc(-c2ccc(C(F)(F)F)cc2)oc1-c1cccc([N+](=O)[O-])c1 [Compound 33, Ethyl 5-(3-nitrophenyl)-2-(4-(trifluoromethyl)phenyl)oxazole-4-carboxylate]	30	32	43.5	67	68	73	–	–	–	–	–
100	–	1.26	2.56	CCOC(=O)c1nc(-c2ccc(C(F)(F)F)cc2)oc1-c1ccccc1OC [Compound 44, Ethyl 5-(2-methoxyphenyl)-2-(4-(trifluoromethyl)phenyl)oxazole-4-carboxylate]	38	77	–	–	99	68	–	–	–	–	–
97	97	4.17	0.42	CSc1ccc(-c2nc(C(=O)NCCN3CCN(C)CC3)c(-c3ccccc3)o2)cc1 [Compound 272, N-(2-(4-Methylpiperazin-1-yl)ethyl)-2-(4-(methylthio)phenyl)-5-phenyloxazole-4-carboxamide]	52	79	5.6	4.73	49	46	–	–	–	–	–
101	104	3.15	–	CC(=O)N1CCN(CCNC(=O)c2nc(-c3ccc(C(F)(F)F)cc3)oc2-c2ccccc2[N+](=O)[O-])CC1 [Compound 284, N-(2-(4-acetylpiperazin-1-yl)ethyl)-5-(2-nitrophenyl)-2-(4-(trifluoromethyl)phenyl)oxazole-4-carboxamide]	27	39	46.5	48.6	49	40	–	–	–	–	–
112	111	0.64	0.49	CCNC(=O)c1nc(-c2ccc(C(F)(F)F)cc2)oc1-c1cccc(SC)c1 [Compound 291, N-Ethyl-5-(3-(methylthio)phenyl)-2-(4-(trifluoromethyl)phenyl)oxazole-4-carboxamide]	40	66	–	–	–	–	25	–	–	102	106
110	112	1.13	0.09	CCCNC(=O)c1nc(-c2ccc(C(F)(F)F)cc2)oc1-c1cccc(SC)c1 [Compound 292, 5-(3-(Methylthio)phenyl)-N-propyl-2-(4-(trifluoromethyl)phenyl)oxazole-4-carboxamide]	39	42	–	–	–	–	29	58	55	–	–
